Measured values from US10202408B2, “Prodrugs and methods of use thereof” (Health Innovation Ventures B.V., priority 2012, dated 2019).
Entries after “also recorded” stand apart in the source; their conditions may differ.

Legend:
[1] = tested on: H1299 cells engineered to over-express E coli NfsA; assay: Low cell density IC50 (SRB) assay, H1299 wild type versus E coli NfsA over-expressing cells; type: cell-based, human
Method: (§1) Compounds were subjected to testing, including low-cell density cytotoxicity assay. Cells (500 cells/well) were seeded in 96-well plates and exposed to prodrug for 4 h, washed, then left to grow for a further 5 days. The SRB assay was employed to determine IC50 values (concentration of prodrug required to inhibit proliferation by 50%). Parental HCT116 cells (HCT116 is a cell line derived from human colon cancer) and cells expressing the example nitroreductase gene nfsA from Escherichia coli were evaluated head-to-head. Parental H1299 cells (H1299 is a cell line derived from lung cancer) and cells expressing the example nitroreductase gene nfsA from Escherichia coli were evaluated head-to-head. Parental HCT116 cells and cells expressing human AKR1C3 were evaluated head-to-head. Parental H1299 cells and cells expressing human AKR1C3 were evaluated head-to-head. In a variation of these assays test compounds were assessed for their ability to give hypoxia-selective cell killing. Here wild type HCT116, H460 (H460 is a cell line derived from lung cancer), H1299 and SiHa cells (SiHa is a cell line derived from cervical cancer) were used in addition to HCT116 cells engineered to over express cytochrome P450 reductase (HCT116 POR), a human one-electron nitroreductase. Low-cell density cytotoxicity assays were performed as above under oxic conditions and compared to experiments where cells were shown 4 h of anoxia during the prodrug exposure period, before being washed free of prodrug and then left to grow for a further 5 days under oxic conditions, as above.

[2] = tested on: HCT116 cells engineered to over-express E coli NfsA; assay: Low cell density IC50 (SRB) assay, HCT116 wild type versus E coli NfsA over-expressing cells; type: cell-based, human
Method: as §1

[3] = tested on: HCT116 MCLs over-expressing AKR1C3; assay: Multicellular layer (MCL) clonogenic assay, HCT116 wild type versus AKR1C3 over-expressing MCLs; type: cell-based, human
Method: (§2) In parallel, a three dimensional high-cell density multi-cellular layer (MCL) clonogenic assay was performed. 1×10^6 cells of either 100% HCT-116^WT or containing 97% WT with a minor 3% HCT-116^NTR cell population were seeded into a collagen-coated Teflon microporous membrane and left to grow for 3 days. MCLs were then exposed to prodrug for 5 h. After treatment, MCLs were enzyme dissociated, diluted in fresh medium and plated to determine clonogenic survival. To discriminate clonogenic activator (NTR+) from target (NTR−) colonies, cells were plated in non-selective medium (total cells) and medium containing 1 μM puromycin (activator cells). Colonies were grown for 10 days before staining. Colonies containing >50 cells were counted. A variation of this assay was also used to assess for evidence of AKR1C3-dependent cytotoxicity. Here either 100% HCT-116W^T or 100% HCT-116^AKR1C3 cells were seeded to provide MCLs that were then exposed to prodrug.

[4] = tested on: HCT116 cells engineered to over-express human aldo-ketoreductase 1C3 (AKR1C3); assay: Low cell density IC50 (SRB) assay, HCT116 wild type versus AKR1C3 over-expressing cells; type: cell-based; settings: 4 h exposure
Method: as §1

[5] = tested on: 15% E coli NfsA-expressing H1299 xenografts; assay: Tumour growth delay, 15% E coli NfsA-expressing H1299 xenografts; type: in vivo, NIH-III mice
Method: Animals weighed 18-25 g at the time of tumour inoculation. Tumours were grown subcutaneously on the right flank of mice by inoculating cells grown in tissue culture (1×10^7 cells in 100 uL serum free α-MEM). Tumour sizes were monitored three times weekly using electronic callipers and treatments were initiated once tumour diameter reached ≥7 mm.
Tumour bearing mice were randomised into the appropriate treatment groups and tumour size and body weight recorded. Test compounds were formulated on the day of the experiment and kept in foil-wrapped tubes out of direct fluorescent light. If recruitment of animals occurred over multiple days, the drug stocks were aliquoted into tubes and frozen once at […] until required. Mice were treated with a single (or BID) dose of prodrug by intraperitoneal injection and thereafter tumour size and body weight was monitored every second day. Tumour volume was calculated as π (l×w×w)/6, where l is the major axis and w is the perpendicular minor axis. Animals were culled when they had reached the appropriate survival endpoint or when body weight loss exceeded 20% of the pre-treatment value.

[6] = tested on: wild type SiHa tumour xenografts; assay: Excision assay with and without radiation, wild type SiHa tumour xenografts; type: in vivo, NIH-III nude mice
Method: Tumours were grown subcutaneously in the flank of NIH-III mice by inoculating cells grown in tissue culture. Tumours were monitored using electronic calipers. When tumours reached treatment size, mice were randomized to treatment groups (five to seven per group). Compounds were given as single (or BID) intraperitoneal doses alone or 5 min after whole body irradiation (^60Co source). Eighteen hours after treatment, tumours were excised, weighed, minced, dissociated enzymatically, and plated to determine clonogenicity. Clonogens/gram of tissue were calculated relative to controls and effects of treatment were tested for significance (ANOVA with Dunnett's).

[7] = tested on: bacterial nitroreductases from the NfsA and NfsB families; assay: GFP SOS assay with nitroreductase over-expression library; type: cell-based, E. coli strain SOS-R4; settings: 55 candidate nitroreductase library, 6 h challenge
Excerpt: The method employed the over-expression of a candidate nitroreductase gene from plasmid pUCX in an SOS reporter strain, as first described in Prosser et al., 2010, Biochem Pharmacol 79, 678-687. In order to enhance the sensitivity of the SOS reporter system, an sfiA::GFP reporter construct was integrated into a CDF-based plasmid (which contains a compatible origin of replication with pUCX) to give the pANODuet reporter plasmid for GFP screening. In addition, nfsA, nfsB, azoR, and nemA genes were deleted to minimise background metabolism, and the tolC gene deleted to minimise efflux of test compounds; this strain was designated SOS-R3. Further improvements were obtained by deleting the mdaB, ycaK, and yieF genes to minimise background metabolism, and by introducing transcriptional terminators to the pANODUET reporter plasmid. This final reporter strain was designated SOS-R4.
Stored glycerols of the 55-membered nitroreductase library in SOS-R4 were thawed and used to inoculate overnight cultures (Lysogeny Broth (LB) amended with 100 μg ml^−1 Ampicillin, 50 μg ml^−1 Spectinomycin, 0.4% glucose) that were incubated at 30° C., 200 rpm for 16 h. The next morning the GFP-SOS assay was commenced by inoculation of 195 μl fresh assay media (LB+100 μg ml^−1 Ampicillin, 50 μg ml^−1 Spectinomycin, 0.2% glucose, 50 μM IPTG) with 15 μl of overnight culture in individual wells of a 96-well plate. Plates were incubated at 30° C., 200 rpm for 2.5 h (pre-challenge period), following which cultures were diluted 1:2 by splitting 50:50 into fresh assay media (+DMSO to 0.5% final concentration) and fresh challenge media (assay media+drug to desired concentration, DMSO to 0.5% final concentration) to final volumes of 80 μl apiece in duplicate on a 384-well plate. Plates were incubated at 30° C., 200 rpm for 6 h (challenge period). GFP expression was determined at excitation 488 nm/emission 509 nm. Turbidity was determined by OD600 and fluorescence data from any replicates not found to be within 15% of the median culture turbidity were discarded.

[8] = tested on: bacterial nitroreductases from the NfsA and NfsB families; assay: as above; type: cell-based, E. coli strain SOS-R4; settings: single and poly mutated variants of NfsA_Ec, single-mutated variant of NfsA_Bs
[9] = tested on: H1299 cells engineered to over-express human aldo-ketoreductase 1C3 (AKR1C3); assay: Low cell density IC50 (SRB) assay, H1299 wild type versus AKR1C3 over-expressing cells; type: cell-based; settings: 4 h exposure
Method: as §1

[10] = tested on: HCT116 MCLs with 3% E coli NfsA-expressing cells; assay: MCL clonogenic bystander assay, HCT116 MCLs seeded with 3% E coli NfsA-expressing cells; type: cell-based, human; settings: 97% wild type HCT116, 3% E coli NfsA-expressing cells
Method: as §2

## CS(=O)(=O)OCCN(CCBr)c1c(C(=O)NCCO)cc([N+](=O)[O-])cc1[N+](=O)[O-] [PR-104A, 2-((2-bromoethyl)(2-((2-hydroxyethyl)carbamoyl)-4,6-dinitrophenyl)amino)ethyl methanesulfonate, reference compound]
[1]
  E coli NfsA-mediated cytotoxicity (IC50 wild type versus NfsA): produce E coli NfsA-mediated cytotoxicity
[2]
  E coli NfsA-mediated cytotoxicity (IC50 wild type versus NfsA): produce E coli NfsA-mediated cytotoxicity

## CCN(CCO)C(=O)c1cc([N+](=O)[O-])cc([N+](=O)[O-])c1N(CCBr)CCBr [compound 7, reference compound]
[3]
  AKR1C3-dependent clonogenic cell kill in MCLs: capable of producing AKR1C3-dependent cell ablation

## CC(C)N(CCO)C(=O)c1cc([N+](=O)[O-])cc([N+](=O)[O-])c1N(CCBr)CCBr [compound 8, reference compound]
[4]
  AKR1C3-mediated cytotoxicity (IC50 wild type versus AKR1C3): appear negative for AKR1C3 dependent cell sensitivity

## CCCN(CCO)C(=O)c1cc([N+](=O)[O-])cc([N+](=O)[O-])c1N(CCBr)CCBr [compound 9, reference compound]
[4]
  AKR1C3-mediated cytotoxicity (IC50 wild type versus AKR1C3): appears to be AKR1C3-negative; also recorded: appear negative for AKR1C3 dependent cell sensitivity
[3]
  AKR1C3-dependent clonogenic cell kill in MCLs: capable of producing AKR1C3-dependent cell ablation

## CCS(=O)(=O)c1cc([N+](=O)[O-])c(C(=O)N(C)CCOP(=O)(O)O)cc1N(CCBr)CCBr [compound 11, 2-(5-(bis(2-bromoethyl)amino)-4-(ethylsulfonyl)-N-methyl-2-nitrobenzamido)ethyl dihydrogen phosphate]
[5]; mixed HCT116 and H1299 xenografts, 15% E coli NfsA cells, single (or BID) intraperitoneal dose
  tumour growth delay: profound tumour growth delay
[5]; single dose, 10, 22, 60 and 11 at 750, 422, 1330 and 1330 umol/kg
  E coli NfsA mediated anti-tumour efficacy (mean tumour volume): display significant E coli NfsA mediated anti-tumour efficacy
[6]; HCT116 POR and wild type SiHa xenografts, 10 or 15Gy, single (or BID) intraperitoneal dose
  cell killing in combination with radiation versus radiation alone: increased cell killing above what could be achieved with radiation alone
[6]; with or without 10Gy radiation, 22 at 422, 300 and 11 at 1330, 23 at 1000 umol/kg
  hypoxic cell kill in vivo (log cell kill): significant hypoxic cell kill in vivo

## CC(C)N1CCN(C(=O)c2cc(N(CCBr)CCBr)c(S(C)(=O)=O)cc2[N+](=O)[O-])CC1 [compound 24, (5-(bis(2-bromoethyl)amino)-4-(methylsulfonyl)-2-nitrophenyl)(4-isopropylpiperazin-1-yl)methanone]
[7]
  metabolism by bacterial nitroreductases (SOS response): substrates for multiple wild type and mutant bacterial nitroreductases from the NfsA and NfsB families
[8]
  activity with mutated nitroreductase variants: demonstrated
[1]
  E coli NfsA-mediated cytotoxicity (IC50 wild type versus NfsA): produce E coli NfsA-mediated cytotoxicity
[4]
  AKR1C3-mediated cytotoxicity (IC50 wild type versus AKR1C3): less susceptible to AKR1C3-mediated cytotoxicity than PR-104A
[3]
  AKR1C3-dependent clonogenic cell kill in MCLs: do not cause AKR1C3-dependant cytotoxicity
[9]
  AKR1C3-mediated cytotoxicity (IC50 wild type versus AKR1C3): less susceptible to AKR1C3-mediated cytotoxicity than PR-104A
[2]
  E coli NfsA-mediated cytotoxicity (IC50 wild type versus NfsA): produce E coli NfsA-mediated cytotoxicity
[10]
  bystander cell killing in MCLs: display evidence of metabolism by the 3% E coli NfsA-expressing cells with bystander cell killing of the 97% non-expressing neighbour cells

## CS(=O)(=O)OCCN(CCBr)c1ccc([N+](=O)[O-])cc1C(=O)NCCO [compound 64, 2-((2-bromoethyl)(2-((2-hydroxyethyl)carbamoyl)-4-nitrophenyl)amino)ethyl methanesulfonate]
[7]
  metabolism by bacterial nitroreductases (SOS response): substrates for multiple wild type and mutant bacterial nitroreductases from the NfsA and NfsB families
[8]
  activity with mutated nitroreductase variants: demonstrated
[1]
  E coli NfsA-mediated cytotoxicity (IC50 wild type versus NfsA): produce E coli NfsA-mediated cytotoxicity
[4]
  AKR1C3-mediated cytotoxicity (IC50 wild type versus AKR1C3): less susceptible to AKR1C3-mediated cytotoxicity than PR-104A
[3]
  AKR1C3-dependent clonogenic cell kill in MCLs: do not cause AKR1C3-dependant cytotoxicity
[2]
  E coli NfsA-mediated cytotoxicity (IC50 wild type versus NfsA): produce E coli NfsA-mediated cytotoxicity
[10]
  bystander cell killing in MCLs: display evidence of metabolism by the 3% E coli NfsA-expressing cells with bystander cell killing of the 97% non-expressing neighbour cells
